Measured values taken from patent US9833426B2, “Agent for preventing deterioration in vascular endothelial function or improving vascular endothelial function” (KYOWA HAKKO BIO CO., LTD., priority 2012, dated 2017).

What was measured:
[1] = test system: mice in which chronic rheumatoid arthritis was induced; conditions: oral administration, mice with induced chronic rheumatoid arthritis; cited from earlier work
[2] = test system: normal rats and spontaneously hypertensive rats (SHR); conditions: intravenous acute administration, transient; cited from earlier work
[3] = test system: normal human umbilical vein endothelial cells (HUVEC); experiment: Nitrite (NO2) concentration in HUVEC culture supernatant by HPLC (NO production); assay type: cell-based; conditions: 48-hour culture
Description: A normal human umbilical vein endothelial cells (HUVEC) line available from Clonetics (SanDiego, Calif., USA) was used with EGM-2 Bullet Kit medium containing 2% FBS (Takara Bio Inc.). The cells were cultured at 37° C. in a 5% CO2 incubator, and used for experiments after 4 to 6 passages. Citrulline and serine, which were manufactured by Kyowa Hakko Bio, were used.
A cell suspension (0.45 mL) with the adjusted initial cell density to 1×10^5 cells/mL was inoculated in a 24-well plate (IWAKI). After 24-hour culture, the medium was replaced with a medium containing L-citrulline (final concentration 0.3 mM: low-dose citrulline group, or final concentration 3 mM: high-dose citrulline group), L-serine (final concentration 0.3 mM: serine group), or a mixture thereof (citrulline final concentration 0.3 mM and serine final concentration 0.3 mM: low-dose citrulline+serine group, or citrulline final concentration 3 mM and serine final concentration 0.3 mM: high-dose citrulline+serine group). In a control group, a medium to which only a solvent (PBS) was added was used. After 48-hour culture, the culture broth ([…]) was centrifuged at 12,000 rpm for 10 minutes, and the concentration of nitrite (NO2), which is a stable NO metabolite, in the culture supernatant was determined by HPLC (ENO-20, EICOM).

SMILES: N[C@@H](CO)C(=O)O [serine, L-serine]
- Arthritis score [1]: ameliorating the arthritis score
- Average blood pressure [2]: decreased
- Peripheral vascular resistance [2]: decreased in a transient manner

SMILES: NC(=O)NCCC[C@H](N)C(=O)O [citrulline, L-citrulline]
- Effect on NO production alone ([3]; citrulline 0.3 mM alone (low-dose citrulline group)): does not affect NO production alone
- Effect on NO production alone ([3]; citrulline 3 mM alone (high-dose citrulline group)): NO production was enhanced
